Source: patent US9718799B2, “3-aryl-4H-chromene-4-ones as antineoplastic agents for the treatment of cancer” (The University of Kentucky Research Foundation, priority 2015, dated 2017)

Assays:
P388 leukemia cells = settings: cited from earlier work
[1] = system: PC3 prostate cancer cells; test: Cell proliferation assay in prostate cancer PC3 cells; format: cell-based; settings: Homo sapiens, PC-3
Method: Cell Proliferation Assay:
PC3 prostate cancer cells were cultured in DMEM/F-12 HAM Mixture (Sigma D8437), 10% Fetal Bovine Serum (Atlanta Biological S11150). Before the treatment, 3.5×10^4 cells per well were split into 12-well plates. After 24 h, 10 μM of each compound was added to each well. DMSO was used as a control. This experiment was done in triplicate. Cell viability and number were analyzed using Vi-Cell XR Cell Viability Analyzer (Beckman Coulter).

[2] = system: PC3 prostate cancer cells; test: as above; format: cell-based
[3] = system: different cancer cell lines; settings: cited from earlier work

Question: For `COCc1c(OC)cc(O)c2c(=O)cc(C)oc12` [8-(methoxymethyl)eugenin], which cytotoxicity (P388 leukemia cells) is on record?
Answer: moderate cytotoxicity

Question: Which inhibition at 10 µM [1] does the source give for `COc1ccc(-c2coc3c(COC(C)=O)c(OC(C)=O)ccc3c2=O)cc1` [Isoflavonoid 7d, 7-(Acetoxy)-8-(acetoxymethyl)-3-(4-methoxyphenyl)-4H-chromen-4-one] here?
Answer: 99.2 ± 0.4%

Question: What about the “potency at 1 µM concentration” value ([2]; 1 µM concentration) of the same compound?
Answer: retained potency

Question: For `COc1ccccc1-c1coc2cc(OC)c(CO)c(O)c2c1=O` [Isoflavonoid 8a, 5-Hydroxy-6-(hydroxymethyl)-7-methoxy-3-(2-methoxyphenyl)-4H-chromen-4-one], which inhibition at 10 µM [1] is on record?
Answer: 14.6 ± 3.2%

Question: And the melting point?
Answer: 100 to 101 °C

Question: For `COc1ccc(-c2coc3cc(OC)c(CO)c(O)c3c2=O)cc1` [Isoflavonoid 8b, 5-Hydroxy-6-(hydroxymethyl)-7-methoxy-3-(4-methoxyphenyl)-4H-chromen-4-one], which inhibition at 10 µM [1] is on record?
Answer: 0%

Question: What about the melting point of the same compound?
Answer: 138 to 139 °C

Question: For `COc1ccc(-c2coc3c(CO)c(OC)cc(O)c3c2=O)cc1` [Isoflavonoid 9b, 5-Hydroxy-8-(hydroxymethyl)-7-methoxy-3-(4-methoxyphenyl)-4H-chromen-4-one], which inhibition at 10 µM [1] is on record?
Answer: 79.5 ± 3.6%

Question: And the melting point?
Answer: 139 to 141 °C

Question: What does the source list for `COc1ccccc1-c1coc2c(CO)c(O)ccc2c1=O` [Isoflavonoid 9c, 7-Hydroxy-8-(hydroxymethyl)-3-(2-methoxyphenyl)-4H-chromen-4-one]?
Answer: inhibition at 10 µM [1]: 0%; melting point: 163 to 165 °C

Question: Which results are given for `COc1ccc(-c2coc3c(CO)c(O)ccc3c2=O)cc1` [Isoflavonoid 9d, 7-Hydroxy-8-(hydroxymethyl)-3-(4-methoxyphenyl)-4H-chromen-4-one]?
Answer: inhibition at 10 µM [1]: 99.5 ± 0.2%; melting point: 150 to 152 °C (dec.)

Question: Which inhibition at 10 µM [1] does the source give for `COc1ccc(-c2c(C)oc3c(CO)c(O)ccc3c2=O)cc1` [Isoflavonoid 9e, 7-Hydroxy-8-(hydroxymethyl)-3-(4-methoxyphenyl)-2-methyl-4H-chromen-4-one] here?
Answer: 99.5 ± 0.5%

Question: What about the melting point of the same compound?
Answer: 212 to 214 °C (dec.)

Question: Which results are given for `COCc1c(OC)cc2occ(-c3ccccc3OC)c(=O)c2c1O` [Isoflavonoid 10a, 5-Hydroxy-7-methoxy-6-(methoxymethyl)-3-(2-methoxyphenyl)-4H-chromen-4-one]?
Answer: inhibition at 10 µM [1]: 53.4 ± 8%; melting point: 123 to 124 °C

Question: For `COCc1c(OC)cc2occ(-c3ccc(OC)cc3)c(=O)c2c1O` [Isoflavonoid 10b, 5-Hydroxy-7-methoxy-6-(methoxymethyl)-3-(4-methoxyphenyl)-4H-chromen-4-one], which inhibition at 10 µM [1] is on record?
Answer: 0%

Question: And the melting point?
Answer: 180 to 181 °C

Question: What does the source list for `COCc1c(OC)cc(O)c2c(=O)c(-c3ccccc3OC)coc12` [Isoflavonoid 11a, 5-Hydroxy-7-methoxy-8-(methoxymethyl)-3-(2-methoxyphenyl)-4H-chromen-4-one]?
Answer: inhibition at 10 µM [1]: 0%; melting point: 154 to 155 °C

Question: What does the source list for `COCc1c(OC)cc(O)c2c(=O)c(-c3ccc(OC)cc3)coc12` [Isoflavonoid 11b, 5-Hydroxy-7-methoxy-8-(methoxymethyl)-3-(4-methoxyphenyl)-4H-chromen-4-one]?
Answer: inhibition at 10 µM [1]: 96.8 ± 0.8%; melting point: 126 to 128 °C

Question: Which results are given for `COCc1c(O)ccc2c(=O)c(-c3ccccc3OC)coc12` [Isoflavonoid 11c, 7-Hydroxy-8-(methoxymethyl)-3-(2-methoxyphenyl)-4H-chromen-4-one]?
Answer: inhibition at 10 µM [1]: 0%; melting point: 164 to 166 °C

Question: Which results are given for `COCc1c(O)ccc2c(=O)c(-c3ccc(OC)cc3)coc12` [Isoflavonoid 11d, 7-Hydroxy-8-(methoxymethyl)-3-(4-methoxyphenyl)-4H-chromen-4-one]?
Answer: inhibition at 10 µM [1]: 34.9 ± 3.3%; melting point: 167 to 169 °C (dec.)

Question: Which inhibition at 10 µM [1] does the source give for `COc1ccc(-c2coc3c4c(ccc3c2=O)OC2OCCC2C4)cc1` (centres unmarked) [Isoflavonoid 20a, 3-(4-Methoxyphenyl)-9,10,10a,11-tetrahydro-4H,7aH-furo[2,3-b]pyrano[2,3-f]chromen-4-one] here?
Answer: 62 ± 7%

Question: What about the melting point of the same compound?
Answer: 201 to 202 °C

Question: Which inhibition at 10 µM [1] does the source give for `O=c1c(-c2ccc3c(c2)OCO3)coc2c3c(ccc12)OC1OCCC1C3` (centres unmarked) [Isoflavonoid 20c, 3-(1,3-Benzodioxol-5-yl)-9,10,10a,11-tetrahydro-4H,7aH-furo[2,3-b]pyrano[2,3-f]chromen-4-one] here?
Answer: 47 ± 4%

Question: And the melting point?
Answer: 203 to 205 °C

Question: For `O=c1c(-c2ccc(Cl)cc2)coc2c3c(ccc12)OC1OCCC1C3` (centres unmarked) [Isoflavonoid 20e, 3-(4-Chlorophenyl)-9,10,10a,11-tetrahydro-4H,7aH-furo[2,3-b]pyrano[2,3-f]chromen-4-one], which inhibition at 10 µM [1] is on record?
Answer: 63 ± 10%

Question: What about the melting point of the same compound?
Answer: 194 to 195 °C

Question: What does the source list for `COc1ccc(-c2coc3c4c(ccc3c2=O)OC2OCCCC2C4)cc1` (centres unmarked) [Isoflavonoid 21a, 3-(4-Methoxyphenyl)-10,11,11a,12-tetrahydro-4H,7aH,9H-dipyrano[2,3-b:2′,3′-f]chromen-4-one]?
Answer: inhibition at 10 µM [1]: 73 ± 6%; melting point: 182 to 183 °C

Question: For `COc1ccc(-c2coc3c4c(ccc3c2=O)OC2OCCCC2C4)cc1OC` (centres unmarked) [Isoflavonoid 21b, 3-(3,4-Dimethoxyphenyl)-10,11,11a,12-tetrahydro-4H,7aH,9H-dipyrano[2,3-b:2′,3′-f]chromen-4-one], which inhibition at 10 µM [1] is on record?
Answer: 35 ± 10%

Question: What about the melting point of the same compound?
Answer: 177 to 178 °C

Question: Which inhibition at 10 µM [1] does the source give for `O=c1c(-c2ccc3c(c2)OCO3)coc2c3c(ccc12)OC1OCCCC1C3` (centres unmarked) [Isoflavonoid 21c, 3-(1,3-Benzodioxol-5-yl)-10,11,11a,12-tetrahydro-4H,7aH,9H-dipyrano[2,3-b:2′,3′-f]chromen-4-one] here?
Answer: 68%

Question: And the melting point?
Answer: 179 to 181 °C

Question: Which inhibition at 10 µM [1] does the source give for `O=c1c(-c2ccc3c(c2)OCCO3)coc2c3c(ccc12)OC1OCCCC1C3` (centres unmarked) [Isoflavonoid 21d, 3-(2,3-Dihydro-1,4-benzodioxin-6-yl)-10,11,11a,12-tetrahydro-4H,7aH,9H-dipyrano[2,3-b:2′,3′-f]chromen-4-one] here?
Answer: 48 ± 3%

Question: And the melting point?
Answer: 160 to 162 °C

Question: Which inhibition at 10 µM [1] does the source give for `O=c1c(-c2ccc(Cl)cc2)coc2c3c(ccc12)OC1OCCCC1C3` (centres unmarked) [Isoflavonoid 21e, 3-(4-Chlorophenyl)-10,11,11a,12-tetrahydro-4H,7aH,9H-dipyrano[2,3-b:2′,3′-f]chromen-4-one] here?
Answer: 44 ± 4%

Question: What about the melting point of the same compound?
Answer: 195 to 197 °C

Question: With `COc1ccc(-c2c(C)oc3c4c(ccc3c2=O)OC2OCCCC2C4)cc1` (centres unmarked) [Isoflavonoid 21g, 3-(4-Methoxyphenyl)-2-methyl-10,11,11a,12-tetrahydro-4H,7aH,9H-dipyrano[2,3-b:2′,3′-f]chromen-4-one] as the compound, how does the inhibition at 10 µM [1] read?
Answer: 62%

Question: What about the melting point of the same compound?
Answer: 199 to 200 °C

Question: What does the source list for `COc1ccc(-c2c(C)oc3c4c(ccc3c2=O)OC2OCCCC2C4)cc1OC` (centres unmarked) [Isoflavonoid 21h, 3-(3,4-Dimethoxyphenyl)-2-methyl-10,11,11a,12-tetrahydro-4H,7aH,9H-dipyrano[2,3-b:2′,3′-f]chromen-4-one]?
Answer: inhibition at 10 µM [1]: 44 ± 3%; melting point: 209 to 210 °C

Question: With `Cc1oc2c3c(ccc2c(=O)c1-c1ccc(Cl)cc1)OC1OCCCC1C3` (centres unmarked) [Isoflavonoid 21i, 3-(4-Chlorophenyl)-2-methyl-10,11,11a,12-tetrahydro-4H,7aH,9H-dipyrano[2,3-b:2′,3′-f]chromen-4-one] as the compound, how does the inhibition at 10 µM [1] read?
Answer: 74 ± 3%

Question: And the melting point?
Answer: 205 to 206 °C

Question: For `COc1ccc(-c2coc3c4c(ccc3c2=O)OC2=C(C4)C(=O)CC(C)(C)C2)cc1OC` [Isoflavonoid 22b, 3-(3,4-Dimethoxyphenyl)-9,9-dimethyl-8,9,10,12-tetrahydro-4H,11H-pyrano[2,3-a]xanthene-4,11-dione], which inhibition at 10 µM [1] is on record?
Answer: 86 ± 1%

Question: And the inhibition at 10 µM ([1]; PC3 cells, 10 μM)?
Answer: 86%

Question: What about the inhibition at 1 µM ([2]; Homo sapiens, PC-3, 1 μM) of the same compound?
Answer: 31%

Question: What about the melting point of the same compound?
Answer: 196 to 198 °C

Question: With `COc1ccc(-c2coc3c4c(ccc3c2=O)OC2(O)CCCCC2C4)cc1` (centres unmarked) [Isoflavonoid 24a, 7a-Hydroxy-3-(4-methoxyphenyl)-8,9,10,11,11a,12-hexahydro-4H,7aH-pyrano[2,3-a]xanthen-4-one] as the compound, how does the inhibition at 10 µM [1] read?
Answer: 30 ± 15%

Question: What about the melting point of the same compound?
Answer: 222 to 223 °C

Question: What does the source list for `COc1ccc(-c2coc3c4c(ccc3c2=O)OC2(O)CCCCC2C4)cc1OC` (centres unmarked) [Isoflavonoid 24b, 3-(3,4-Dimethoxyphenyl)-7a-hydroxy-8,9,10,11,11a,12-hexahydro-4H,7aH-pyrano[2,3-a]xanthen-4-one]?
Answer: inhibition at 10 µM [1]: 56 ± 5%; melting point: 214 to 216 °C

Question: Which inhibition at 10 µM [1] does the source give for `COc1ccc(-c2c(C)oc3c4c(ccc3c2=O)OC2(O)CCCCC2C4)cc1` (centres unmarked) [Isoflavonoid 24g, 7a-Hydroxy-3-(4-methoxyphenyl)-2-methyl-8,9,10,11,11a,12-hexahydro-4H,7aH-pyrano[2,3-a]xanthen-4-one] here?
Answer: 78 ± 1%

Question: What about the melting point of the same compound?
Answer: 212 to 213 °C

Question: Which inhibition at 10 µM [1] does the source give for `COc1ccc(-c2coc3c(C)c4c(cc3c2=O)CC2CCOC2O4)cc1` (centres unmarked) [Isoflavonoid 25a, 3-(4-Methoxyphenyl)-11-methyl-6a,7,8,9a-tetrahydro-4H,6H-furo[2,3-b]pyrano[3,2-g]chromen-4-one] here?
Answer: 78 ± 3%

Question: And the melting point?
Answer: 155 to 157 °C

Question: With `O=c1c(-c2ccc(O)cc2)coc2cc(O)cc(O)c12` [genistein (B), genistein] as the compound, how does the IC50 [3] read?
Answer: 15 to 100 µM
